According to ChEMBL document CHEMBL1781966, “Lead optimization of 4-imidazolylflavans: new promising aromatase inhibitors” (Eur J Med Chem, 2011):

Target: T1, Aromatase (Homo sapiens, UniProt P11511)
T1 sequence (P11511 whole entry): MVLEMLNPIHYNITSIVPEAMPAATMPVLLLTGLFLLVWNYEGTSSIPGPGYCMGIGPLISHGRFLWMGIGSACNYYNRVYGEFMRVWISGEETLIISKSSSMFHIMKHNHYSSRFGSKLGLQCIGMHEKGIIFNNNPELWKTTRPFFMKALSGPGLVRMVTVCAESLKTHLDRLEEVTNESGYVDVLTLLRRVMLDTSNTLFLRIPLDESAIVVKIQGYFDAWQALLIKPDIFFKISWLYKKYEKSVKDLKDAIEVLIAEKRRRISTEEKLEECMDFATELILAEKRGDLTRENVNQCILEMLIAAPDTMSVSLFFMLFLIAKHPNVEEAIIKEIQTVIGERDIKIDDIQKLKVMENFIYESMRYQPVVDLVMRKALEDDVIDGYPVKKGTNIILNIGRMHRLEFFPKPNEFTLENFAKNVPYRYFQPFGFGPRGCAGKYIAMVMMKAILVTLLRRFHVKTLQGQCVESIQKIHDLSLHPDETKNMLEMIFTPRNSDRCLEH
Assay: Inhibition of aromatase in human placental microsomes assessed as inhibition of aromatization of [1,2,6,7-3H] androstenedione by flow scintillation analysis
Set-up: species or system Placenta

Compound	IC50 [nM]
Oc1ccc(C2CC(n3ccnc3)c3ccc4ccccc4c3O2)cc1 (mixture of isomers)	32
c1ccc(C2CC(n3ccnc3)c3ccc4ccccc4c3O2)cc1 (trans isomer)	36
N#Cc1ccc(C2CC(n3ccnc3)c3ccc4ccccc4c3O2)cc1 (stereo in doubt)	34

Continued, values first:

IC50 [nM]	Compound
78	N#Cc1ccc(C2CC(n3ccnc3)c3ccc4ccccc4c3O2)cc1 (mixture of isomers)
534	N#Cc1ccc(C2CC(n3ccnc3)c3ccc4ccccc4c3O2)cc1 (cis isomer)
